Assays:
[1] = Drug pharmacokinetic parameters referenced in literature; assay type: in vivo; conditions: drug clearance/Vd
Experimental: Do=Original dosage taken Vd=Volume of distribution of drug (referenced in literature) times the kg body weight of donor C=Plasma drug concentration Ka=Absorption constant of drug (referenced in literature) Kel=Elimination constant of drug (referenced in literature) F=Bioavailability of drug (referenced in literature) t=Elapsed time between dosage and specimen collection
Each donor's drug clearance rate is determined by multiplying the drugs clearance rate (referenced in literature) by the donor's weight (provided).
Likewise, each donor's volume of distribution (DVd) is calculated by multiplying the drug volume of distribution (Vd) (referenced in literature) by the donor's weight (provided).
[formula] • Css max=Steady state maximum concentration (ng/mL) • F=Fractional bioavailability • k=Fractional rate constant (drug clearance/Vd) • t=Dose frequency (hr) • DVd=Donor volume of distribution (reference Eq. 2)
[formula] • Do=Original dose taken (mg) • DVd=Volume of distribution of donor (mL) (reference Eq. 2) • C=Plasma drug concentration (mg/mL) • Ka=Absorption constant of drug (referenced in literature) • Kel=Elimination constant of drug (referenced in literature) • F=Fractional bioavailability of drug (referenced in literature) • t=Elapsed time between dosage and specimen collection (fir)

[2] = referenced in literature, cited from earlier work; for Kel: elimination constant
[3] = Oral fluid plasma equivalent calculation; assay type: in vivo, human
Source text: (§1) Each donor provides simultaneous serum and oral fluid samples. The measured serum drug concentration is the LC-MS/MS response ratio of drug to internal standard determined from the individual's provided serum sample. The measured oral fluid drug concentration ratio is the LC-MS/MS response ratio of drug to internal standard determined from the individual's provided oral fluid sample. The oral fluid plasma equivalent is derived from the individual's measured oral fluid drug concentration, salivary pH, as well as various drug parameters referenced in literature.
[formula] • S=Saliva drug concentration (ng/mL) • P=Plasma drug concentration (ng/mL) • pHs=pH of saliva (to be determined at the time of collection) • pHp=pH of plasma (assumed to be 7.4) • pKa=Dissociation constant of a drug (referenced in literature) • fp=Free fraction of drug in plasma (referenced in literature) • fs=Free fraction of drug in saliva (negligible; assumed to be 1)
Once the S/P ratio for a drug is calculated using Eq. 5 or Eq. 6, oral fluid plasma equivalent is determined by […] the calculated S/P by the measured oral fluid drug concentration determined by LC/MS-MS quantitation, ultimately eliminating the necessity of directly analyzing blood samples to determine donor compliance.

plasma proteins = conditions: free fraction in plasma, referenced in literature; cited from earlier work
[4] = LC-MS/MS quantitation of drug in donor oral fluid (saliva); assay type: in vivo, human
Source text: With reference now to FIG. 1, an exemplary methodology 100 for collecting oral fluid will be described. First, the donor (sometimes referred to as subject, patient, person, or the like) is positioned to allow retrieval of the oral fluid sample, step 102. Next, an oral fluid collection device is placed in the donor's mouth, step 104. The collection device in one exemplary embodiment may be an absorbent swab placed under the tongue. One particularly useful collection device that has been developed is shown and described in FIG. 6. In this exemplary embodiment, the oral fluid collection device collects about 1 mL of neat oral fluid from the donor. Generally, the term about or approximately in the present application means within an acceptable tolerance, such as, for example, ±10% or the like. Volumetric collection is required for quantitative analysis when analyzed from a buffer solution. Oral fluid may be absorbed by the collection device by allowing saliva to move up the stem of a collection device via capillary action, step 106. When a sufficient amount of oral fluid is collected, the collection device provides indicia that the required collection amount has been collected, step 108. The indicia indicating the required volume is collected may be by a color change on a collection adequacy indicator or the like. Alternatively, an alpha/numeric display may be provided or an audio alert, such as a beep. Determining salivary pH is completed next or substantially at the same time as the required volume is collected, step 110. The pH of the oral fluid may be determined by a pH sensitive pigment or by other means including, for example, a sensor or the like. The pH indicia may be combined or separate from the indicia for volume and may include the same or different indicators. For example, the volume of the sample may be provided by a color strip whereas the pH may be provided by an audio. […] The pH will then be recorded or otherwise maintained for later use, step 112. In this exemplary embodiment, the donor will provide a sample by placing the collector swab under his or her tongue until the indicator changes color. The swab is then placed in 3 mL of oral fluid extraction buffer that promotes stabilization of the drug, preventing bacterial growth, and facilitates efficient extraction of the drugs and/or metabolites from the adsorbent swab, as is further explained below, step 114. Specimens may be aliquoted for analysis, and any remaining sample may be transferred to long-term storage at, for example, a storage temperature of between about −20 to about 0° C. The collected oral fluid may be referred to as a sample or a specimen interchangeably herein.
Specimens may undergo a sample preparation step in advance of providing the sample to the drug concentration analysis engine, which involves extracting the analyte(s) of interest from biological matrices. This process serves to eliminate any biological material that could potentially affect analytical results. Samples are first treated to disrupt any drug matrix interactions (protein binding, conjugation) and then adjusted to a specific pH with a buffer. Analytes are then extracted from the remaining matrix using solid phase extraction module 206, which may be comprised of cartridges that are mixed-mode cationic exchange columns. This technique uses the specific binding of ionized drug molecules to the extraction cartridge packing material resulting in strong analyte retention within the column. A series of aqueous and organic wash steps may be used to assist in removing unwanted compounds and matrix components from the sample. Target analytes are then eluted from the solid phase extraction module 206, collected, and analyzed by identification module 208 that may be, for example, a liquid chromatography tandem mass spectrometry (LC/MS-MS) device, although other analysis devices are possible. […]

[5] = LC-MS/MS quantitation of drug in donor serum/plasma; assay type: in vivo, human
Source text: Specimens may undergo a sample preparation step in advance of providing the sample to the drug concentration analysis engine, which involves extracting the analyte(s) of interest from biological matrices. This process serves to eliminate any biological material that could potentially affect analytical results. Samples are first treated to disrupt any drug matrix interactions (protein binding, conjugation) and then adjusted to a specific pH with a buffer. Analytes are then extracted from the remaining matrix using solid phase extraction module 206, which may be comprised of cartridges that are mixed-mode cationic exchange columns. This technique uses the specific binding of ionized drug molecules to the extraction cartridge packing material resulting in strong analyte retention within the column. A series of aqueous and organic wash steps may be used to assist in removing unwanted compounds and matrix components from the sample. Target analytes are then eluted from the solid phase extraction module 206, collected, and analyzed by identification module 208 that may be, for example, a liquid chromatography tandem mass spectrometry (LC/MS-MS) device, although other analysis devices are possible.
In this exemplary embodiment, the specimens are analyzed by the identification module 208 that is a LC/MS-MS device, which allows for accurate and precise analyte identification and quantitation. This analytical technique uses a chromatographic system to separate all of the sample components into discrete peaks and sequentially identifies each compound through mass spectral identification. The chromatographic system is composed of a stationary phase of hydrophobic character (for example, octadecylsilane) and a mobile phase of varying polarity (for example, methanol, water). Specimens are injected into the chromatograph and pumped through the system by flow of the mobile phase. Separation is brought about by differential interactions with the stationary phase based on physical and chemical properties of the individual analytes. The end result is a separation of all of the sample components into discrete bands. As each component elutes from the liquid chromatograph it enters the mass spectrometer. The mass spectrometer is able to first determine an analytes specific molecular weight, called a precursor ion, and subsequently fragment the precursor ion into smaller fragments called product ions. The precursor ion and generated product ions are a specific marker of every analyte of interest. No two compounds will generate completely identical mass spectra. This allows for the identification module 208 to conclusively identify specimen components. Additionally, when specimens are analyzed alongside a series of standards of known concentration, a calibration curve can be generated and quantitative values of identified drugs can be determined.
as §1

[6] = Donor 0182, salivary pH 5.5, dose 5 mg every 6 hr, weight 68.554 kg
[7] = Donor 0383, salivary pH 5.8, dose 10 mg every 4 hr, weight 68.10 kg
[8] = Donor 0602, salivary pH 5.5, dose 5 mg every 12 hr, weight 163.44 kg
[9] = Donor 0442, salivary pH 5.8, dose 100 mg every 8 hr, weight 89.890 kg
[10] = Donor 0604, salivary pH 5.5, dose 50 mg every 8 hr, weight 81.720 kg
[11] = Donor 0673, salivary pH 6.8, dose 50 mg every 6 hr, weight 105.782 kg

Q: For COc1ccc2c3c1O[C@H]1C(=O)CC[C@H]4[C@@H](C2)N(C)CC[C@]314 [Hydrocodone], which “Fractional Rate Constant; “k”” value [1] is on record?
A: The value was 0.132 h⁻¹.

Q: And the Ka ([2]; absorption constant)?
A: The Ka was 2.8 h⁻¹.

Q: And the Kel [2]?
A: Its Kel is 0.141 h⁻¹.

Q: What about the Clearance [2] of the same molecule?
A: Its Clearance is 8.82 mL/min/kg.

Q: What about the “Fractional Bioavailability” value [2] of the same molecule?
A: The value was 0.7.

Q: And the “Hydrocodone Oral Fluid Plasma Equivalent” value ([3]; Donor 0409, salivary pH 6, dose 5 mg every 6 hr, weight 67.646 kg)?
A: The value was 20.5 ng/mL.

Q: And the “Oral Fluid Plasma Equivalent” value ([3]; Donor 0476, salivary pH 7.2, 5.833 hr after last dose)?
A: Its value is 4.5 ng/mL (reference Eq. 8).

Q: And the “Hydrocodone Oral Fluid Plasma Equivalent” value ([3]; Donor 0704, salivary pH 6.6, dose 10 mg every 12 hr, weight 147.55 kg)?
A: Its value is 60.5 ng/mL.

Q: What about the “Hydrocodone Oral Fluid Plasma Equivalent” value ([3]; Donor 0897, salivary pH 7, dose 10 mg every 4 hr, weight 83.99 kg) of the same molecule?
A: Its value is 10.1 ng/mL.

Q: Which “Unbound Fraction (fp)” value (plasma proteins) does the source give for COc1ccc2c3c1O[C@H]1C(=O)CC[C@@]4(O)[C@@H](C2)N(C)CC[C@]314 [Oxycodone] here?
A: The value was 0.55.

Q: What about the “Measured Saliva Oxycodone Concentration” value [4, 6] of the same molecule?
A: The value was 306.4 ng/mL.

Q: And the “Measured Saliva Oxycodone Concentration” value [4, 7]?
A: Its value is 230.2 ng/mL.

Q: What about the “Measured Saliva Oxycodone Concentration” value [4, 8] of the same molecule?
A: Its value is 978.2 ng/mL.

Q: And the concentration at 1.333 hr ([4]; human, oral fluid (saliva), po, 1 mg, Donor 0565, salivary pH 6.4, weight 118.040 kg, 1.333 hr after last dose, read-out: Measured Oral Fluid Concentration)?
A: The concentration at 1.333 hr was 217 ng/mL.

Q: What about the “Fractional Rate Constant; “k”” value [1] of the same molecule?
A: Its value is 0.372 h⁻¹.

Q: What about the Kel [2] of the same molecule?
A: The Kel was 0.174 h⁻¹.

Q: What about the Clearance [2] of the same molecule?
A: Its Clearance is 12.4 mL/min/kg.

Q: And the “Fractional Bioavailability” value [2]?
A: Its value is 0.735.

Q: What about the “Measured Plasma Oxycodone Concentration” value [5, 6] of the same molecule?
A: Its value is 7.9 ng/mL.

Q: And the “Measured Plasma Oxycodone Concentration” value [5, 7]?
A: Its value is 8.4 ng/mL.

Q: What about the “Measured Plasma Oxycodone Concentration” value [5, 8] of the same molecule?
A: The value was 16.7 ng/mL.

Q: What about the concentration at 1.383 hr ([5]; human, plasma, 1 mg, Donor 0565, weight 118.040 kg, 1.383 hr after last dose) of the same molecule?
A: Its concentration at 1.383 hr is 33.7 ng/mL.

Q: What about the concentration at 6.05 hr ([5]; human, plasma, 7.5 mg, Donor 0476, weight 84.898 kg, 6.050 hr after last dose, read-out: Measured Plasma Concentration) of the same molecule?
A: The concentration at 6.05 hr was 3.2 ng/mL.

Q: What about the “Oxycodone Oral Fluid Plasma Equivalent” value [3, 6] of the same molecule?
A: The value was 7.5 ng/mL.

Q: What about the “Oxycodone Oral Fluid Plasma Equivalent” value [3, 7] of the same molecule?
A: The value was 11.3 ng/mL.

Q: What about the “Oral Fluid Plasma Equivalent (Calculated Plasma Concentration)” value ([3]; Donor 0565, salivary pH 6.4, 1.333 hr after last dose) of the same molecule?
A: Its value is 42.0 ng/mL (reference Eq. 8).

Q: What about the “Oxycodone Oral Fluid Plasma Equivalent” value [3, 8] of the same molecule?
A: The value was 24.1 ng/mL.

Q: And the concentration at 1.333 hr ([3]; human, plasma (equivalent calculated from oral fluid), po, 1 mg, Donor 0565, salivary pH 6.4, 1.333 hr after last dose)?
A: Its concentration at 1.333 hr is 42 ng/mL.

Q: With COc1cccc(C2(O)CCCCC2CN(C)C)c1 (stereo not drawn) [Tramadol] as the molecule, how does the “Unbound Fraction (fp)” value (plasma proteins) read?
A: Its value is 0.80.

Q: And the “Measured Saliva Tramadol Concentration” value [4, 9]?
A: Its value is 1302.5 ng/mL.

Q: And the “Measured Saliva Tramadol Concentration” value [4, 10]?
A: The value was 29926.5 ng/mL.

Q: And the “Measured Saliva Tramadol Concentration” value [4, 11]?
A: The value was 375.6 ng/mL.

Q: And the “Fractional Rate Constant; “k”” value [1]?
A: The value was 0.178 h⁻¹.

Q: And the Clearance [2]?
A: The Clearance was 8 mL/min/kg.

Q: And the “Fractional Bioavailability” value [2]?
A: Its value is 0.725.

Q: And the “Volume of Distribution” value [2]?
A: Its value is 2.7 L/kg.

Q: What about the “Measured Plasma Tramadol Concentration” value [5, 9] of the same molecule?
A: The value was 70.4 ng/mL.

Q: What about the “Measured Plasma Tramadol Concentration” value [5, 10] of the same molecule?
A: The value was 376.6 ng/mL.

Q: And the “Measured Plasma Tramadol Concentration” value [5, 11]?
A: The value was 104.1 ng/mL.

Q: And the “Tramadol Oral Fluid Plasma Equivalent” value [3, 9]?
A: The value was 41.2 ng/mL.

Q: And the “Tramadol Oral Fluid Plasma Equivalent” value [3, 10]?
A: The value was 475.5 ng/mL.

Q: What about the “Tramadol Oral Fluid Plasma Equivalent” value [3, 11] of the same molecule?
A: The value was 118.7 ng/mL.
